Test results taken from patent publication US20250161308A1, “Methods of Treating Covid-Related Disorders” (priority 2022, published 2025).
Like-named read-outs stand apart in the source and are kept apart here.

What was measured:
[1] = tested on: Rat primary cortical neuron cultures; type: cell-based; details: for Significance of neuroprotection vs 1 uM LPS: 24 h LPS; for protection of primary neurons from LPS-stimulated inflammatory toxicity: at at least one dose tested
[2] = tested on: THP1-differentiated macrophages; type: cell-based, human; set-up: key to Significant reduction in IL-6 / Significant reduction in TNF-α / Significant reduction in IL-1β: NS: indicates a non-significant reduction in the indicated cytokine; +: indicates a p value<0.05 in Tukey post test; ++: indicates a p value<0.01 in Tukey post test; details: for Significant reduction in IL-1β / Significant reduction in IL-6 / Significant reduction in TNF-α: 24 hrs LPS
[3] = tested on: scopolamine-induced spatial memory deficits in rats; test: Scopolamine-induced spatial memory deficit, Morris water maze (3 mg/kg scopolamine, 8 days); type: in vivo, rat
Rat hippocampal neurons [4] = test: Neurite outgrowth assay; type: cell-based
Rat hippocampal neurons [5] = test: Synaptogenesis assay; type: cell-based; details: for Significant increase in: Synapses: Table 4 study
[6] = tested on: LPS-induced cognitive deficit in CD-1 mice; test: Rodent LPS model of brain inflammation, T-maze spontaneous alternation; type: in vivo, mouse; details: for Recovery (%) / Spontaneous alternation (%) Mean: LPS 250 μg/kg
[7] = tested on: pulmonary LPS-stimulated rats; test: Immune cell infiltration in BALF, LPS acute pulmonary inflammation; type: in vivo, rat
[8] = tested on: pulmonary LPS-stimulated rats; test: Cytokine expression in BALF supernatant (multiplex immunoassay), LPS acute pulmonary inflammation; type: in vivo, rat

CCC(C)CN1CC2N(Cc3ccc(OC(F)F)cc3)CCC(=O)N2[C@@H](C)C1=O (some centres unmarked) [Compound 6a]
Significance of neuroprotection vs 1 uM LPS ([1]; 0.1 nM): +++ (+++ indicates p<0.001) | Significance of neuroprotection vs 1 uM LPS ([1]; 1 nM): +++ (+++ indicates p<0.001) | Significance of neuroprotection vs 1 uM LPS ([1]; 10 nM): +++ (+++ indicates p<0.001) | Significance of neuroprotection vs 1 uM LPS ([1]; 100 nM): +++ (+++ indicates p<0.001) | Significance of neuroprotection vs 1 uM LPS ([1]; 1 μM): +++ (+++ indicates p<0.001) | protection of primary neurons from LPS-stimulated inflammatory toxicity [1]: protected primary neurons from LPS-stimulated inflammatory toxicity | Significant reduction in IL-1β ([2]; 0.1 nM): NS | Significant reduction in IL-6 ([2]; 0.1 nM): NS | Significant reduction in TNF-α ([2]; 0.1 nM): NS | Significant reduction in IL-1β ([2]; 10 nM): NS | Significant reduction in IL-6 ([2]; 10 nM): NS | Significant reduction in TNF-α ([2]; 10 nM): NS | Significant reduction in IL-1β ([2]; 1000 nM): + (indicates a p value<0.05 in Tukey post test) | Significant reduction in IL-6 ([2]; 1000 nM): NS | Significant reduction in TNF-α ([2]; 1000 nM): + (indicates a p value<0.05 in Tukey post test) | expression of IL-1β (in words) ([2]; at at least one tested dose): significantly reduced the expression of IL-1β and TNF-α | expression of TNF-α (in words) ([2]; at at least one tested dose): significantly reduced the expression of IL-1β and TNF-α | Cognitive Improvement ([3]; 1 mg/kg PO): − (− indicates post-test p-value above 0.06) | Cognitive Improvement ([3]; 10 mg/kg PO): ++ (++ indicates post-test p-value between 0.05 and 0.01)

CCC(C)CN1CC2N(Cc3ccc(C(F)(F)F)cc3)CCC(=O)N2[C@@H](C)C1=O (some centres unmarked) [Compound 5a]
Significance of neuroprotection vs 1 uM LPS ([1]; 0.1 nM): +++ (+++ indicates p<0.001) | Significance of neuroprotection vs 1 uM LPS ([1]; 1 nM): +++ (+++ indicates p<0.001) | Significance of neuroprotection vs 1 uM LPS ([1]; 10 nM): +++ (+++ indicates p<0.001) | Significance of neuroprotection vs 1 uM LPS ([1]; 100 nM): +++ (+++ indicates p<0.001) | Significance of neuroprotection vs 1 uM LPS ([1]; 1 μM): +++ (+++ indicates p<0.001) | protection of primary neurons from LPS-stimulated inflammatory toxicity [1]: protected primary neurons from LPS-stimulated inflammatory toxicity | neurite length / extension of neurites (in words) (Rat hippocampal neurons [4]): increase neurite length at 1 nM | Significant increase in: Neurite length (Rat hippocampal neurons [4]; 1 nM, Table 4 study): ++++ (++++ = p < 0.0001) | synapse counts (in words) (Rat hippocampal neurons [5]): increase synapse counts at doses of 1 nM and 100 nM | Significant increase in: Synapses (Rat hippocampal neurons [5]; 1 nM): ++++ (++++ = p < 0.0001) | Significant increase in: Synapses (Rat hippocampal neurons [5]; 100 nM): ++++ (++++ = p < 0.0001) | Recovery (%) ([6]; 1.25 mg/kg p.o. 14 days): 58% | Spontaneous alternation (%) Mean ([6]; 1.25 mg/kg p.o. 14 days): 59% | Spontaneous alternation (%) Mean ([6]; 1.25 mg/kg p.o. 14 days, listed as Cmpd 5a): 59.3% | Recovery (%) ([6]; 2.5 mg/kg p.o. 14 days): 53% | Spontaneous alternation (%) Mean ([6]; 2.5 mg/kg p.o. 14 days): 58% | Spontaneous alternation (%) Mean ([6]; 2.5 mg/kg p.o. 14 days, listed as Cmpd 5a): 57.9% | Recovery (%) ([6]; 5 mg/kg p.o. 14 days): 64% | Spontaneous alternation (%) Mean ([6]; 5 mg/kg p.o. 14 days): 61% | Spontaneous alternation (%) Mean ([6]; 5 mg/kg p.o. 14 days, listed as Cmpd 5a): 60.7% | Recovery (%) ([6]; 10 mg/kg p.o. 14 days): 53% | Spontaneous alternation (%) Mean ([6]; 10 mg/kg p.o. 14 days): 58% | Spontaneous alternation (%) Mean ([6]; 10 mg/kg p.o. 14 days, listed as Cmpd 5a): 57.9% | Recovery (%) ([6]; 20 mg/kg p.o. 14 days): 61% | Spontaneous alternation (%) Mean ([6]; 20 mg/kg p.o. 14 days): 60% | Spontaneous alternation (%) Mean ([6]; 20 mg/kg p.o. 14 days, listed as Cmpd 5a): 60.0% | significance of reversal of LPS-induced cognitive deficit (in words) ([6]; T-maze): significant reversal of LPS-induced cognitive deficits at all doses | Significant reduction in IL-1β ([2]; 0.1 nM): ++ (indicates a p value<0.01 in Tukey post test) | Significant reduction in IL-6 ([2]; 0.1 nM): NS | Significant reduction in TNF-α ([2]; 0.1 nM): NS | Significant reduction in IL-1β ([2]; 10 nM): ++ (indicates a p value<0.01 in Tukey post test) | Significant reduction in IL-6 ([2]; 10 nM): + (indicates a p value<0.05 in Tukey post test) | Significant reduction in TNF-α ([2]; 10 nM): NS | Significant reduction in IL-1β ([2]; 1000 nM): ++ (indicates a p value<0.01 in Tukey post test) | Significant reduction in IL-6 ([2]; 1000 nM): ++ (indicates a p value<0.01 in Tukey post test) | Significant reduction in TNF-α ([2]; 1000 nM): + (indicates a p value<0.05 in Tukey post test) | expression of IL-1β (in words) ([2]; at at least one tested dose): significantly reduced the expression of IL-1β and TNF-α | expression of IL-6 (in words) ([2]; at at least one tested dose): significantly reduced the expression of IL-6 | expression of TNF-α (in words) ([2]; at at least one tested dose): significantly reduced the expression of IL-1β and TNF-α | Neutrophils in BALF, reduction vs disease control ([7]; 0.075 mg/kg IV): ++ (++ = >25% reduction in cell count vs disease control) | Total Leukocytes in BALF, reduction vs disease control ([7]; 0.075 mg/kg IV): ++ (++ = >25% reduction in cell count vs disease control) | Neutrophils in BALF, reduction vs disease control ([7]; 0.75 mg/kg IV): + (+ = >5% reduction in cell count vs disease control) | Total Leukocytes in BALF, reduction vs disease control ([7]; 0.75 mg/kg IV): + (+ = >5% reduction in cell count vs disease control) | Neutrophils in BALF, reduction vs disease control ([7]; 7.5 mg/kg IV): + (+ = >5% reduction in cell count vs disease control) | Total Leukocytes in BALF, reduction vs disease control ([7]; 7.5 mg/kg IV): + (+ = >5% reduction in cell count vs disease control) | neutrophil counts compared to LPS-only controls (in words) ([7]; rat, in vivo): reduced both total leukocyte counts and neutrophil counts | total leukocyte counts compared to LPS-only controls (in words) ([7]; rat, in vivo): reduced both total leukocyte counts and neutrophil counts | CCL3, significant change in expression in BALF supernatant ([8]; 0.075 mg/kg IV): + (+ = Significant change in cytokine quantification, p < 0.05 by Student's T-test.) | CX3CL1, significant change in expression in BALF supernatant ([8]; 0.075 mg/kg IV): + (+ = Significant change in cytokine quantification, p < 0.05 by Student's T-test.) | EGF, significant change in expression in BALF supernatant ([8]; 0.075 mg/kg IV): + (+ = Significant change in cytokine quantification, p < 0.05 by Student's T-test.) | IFN-γ, significant change in expression in BALF supernatant ([8]; 0.075 mg/kg IV): + (+ = Significant change in cytokine quantification, p < 0.05 by Student's T-test.) | IL-1α, significant change in expression in BALF supernatant ([8]; 0.075 mg/kg IV): + (+ = Significant change in cytokine quantification, p < 0.05 by Student's T-test.) | IL-1β, significant change in expression in BALF supernatant ([8]; 0.075 mg/kg IV): + (+ = Significant change in cytokine quantification, p < 0.05 by Student's T-test.) | IL-10, significant change in expression in BALF supernatant ([8]; 0.075 mg/kg IV): + (+ = Significant change in cytokine quantification, p < 0.05 by Student's T-test.) | IL-12p70, significant change in expression in BALF supernatant ([8]; 0.075 mg/kg IV): + (+ = Significant change in cytokine quantification, p < 0.05 by Student's T-test.) | IL-17A, significant change in expression in BALF supernatant ([8]; 0.075 mg/kg IV): + (+ = Significant change in cytokine quantification, p < 0.05 by Student's T-test.) | IFN-γ, significant change in expression in BALF supernatant ([8]; 0.75 mg/kg IV): + (+ = Significant change in cytokine quantification, p < 0.05 by Student's T-test.) | IL-1α, significant change in expression in BALF supernatant ([8]; 0.75 mg/kg IV): + (+ = Significant change in cytokine quantification, p < 0.05 by Student's T-test.) | IL-1β, significant change in expression in BALF supernatant ([8]; 0.75 mg/kg IV): + (+ = Significant change in cytokine quantification, p < 0.05 by Student's T-test.) | IL-10, significant change in expression in BALF supernatant ([8]; 0.75 mg/kg IV): + (+ = Significant change in cytokine quantification, p < 0.05 by Student's T-test.) | IL-17A, significant change in expression in BALF supernatant ([8]; 0.75 mg/kg IV): + (+ = Significant change in cytokine quantification, p < 0.05 by Student's T-test.) | IL-1α, significant change in expression in BALF supernatant ([8]; 7.5 mg/kg IV): + (+ = Significant change in cytokine quantification, p < 0.05 by Student's T-test.) | IL-10, significant change in expression in BALF supernatant ([8]; 7.5 mg/kg IV): + (+ = Significant change in cytokine quantification, p < 0.05 by Student's T-test.) | cytokines with significant changes in expression in BALF supernatant (list) ([8]; any dose, p<0.05 vs LPS-only animals): CCL3, CXCL1, IFN-γ, IL-1α, IL-1p, IL-1β, IL-12p70, and IL-17A
